Counter-ions that a name gives are not always drawn.

For test [1], the target named is Human KDR (residues 790-1356) (Homo sapiens (Human), UniProt P35968). Briefly: Human KDR kinase assay, HTRF KinEase (Example B-2). The test is classed as biochemical. Particulars: protocol of Example B-2 (other compounds). The procedure, abridged:
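Human KDR residues 790-1356 (0.1 ng/well) in buffer with 5 mM MgCl2, 1 mM MnCl2, 1 mM DTT, biotinylated peptide substrate, ATP at Km (4.0 μM), 3% DMSO, 10 compound concentrations; 40 min, room temperature. EDTA stop, streptavidin-XL665/Eu-TK antibody HTRF read 665/620 nm; 4-parameter IC50.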
Background: TR-FRET usually uses a lanthanide donor and a delayed reading to cut background.

Test [2] deals with Human MET (residues 956-1390) (Homo sapiens (Human), UniProt P08581). As to the kind of experiment: Human Met kinase assay, HTRF KinEase (Example D-2). The test is classed as biochemical. The note with it: protocol of Example D-2 (other compounds); read-out: c-Met IC50. The procedure, abridged: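 MET kinase domain (956-1390), 0.1 ng/well, in buffer with 5 mM MgCl2, 1 mM DTT and 1 mM MnCl2, phosphorylated a biotinylated peptide at ATP Km for 40 min at RT; 10 concentrations, 3% DMSO final. EDTA-stopped HTRF read after 60 min; IC50 from a 4-parameter logistic fit.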
Human MET (residues 956-1390), sequence (P08581 956-1390): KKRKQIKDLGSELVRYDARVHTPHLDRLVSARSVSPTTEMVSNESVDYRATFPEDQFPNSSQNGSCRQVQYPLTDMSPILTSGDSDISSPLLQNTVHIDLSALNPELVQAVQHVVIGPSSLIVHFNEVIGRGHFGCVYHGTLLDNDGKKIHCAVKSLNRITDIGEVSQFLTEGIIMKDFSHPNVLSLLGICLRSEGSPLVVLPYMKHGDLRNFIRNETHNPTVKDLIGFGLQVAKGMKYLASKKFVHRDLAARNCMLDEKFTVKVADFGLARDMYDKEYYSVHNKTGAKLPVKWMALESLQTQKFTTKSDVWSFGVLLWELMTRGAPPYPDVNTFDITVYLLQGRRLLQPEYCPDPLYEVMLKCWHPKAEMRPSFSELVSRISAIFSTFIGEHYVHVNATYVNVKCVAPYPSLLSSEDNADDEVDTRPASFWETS

Test [3] deals with Mer (phospho-Mer, MERTK-transfected 293A cells) (Homo sapiens (Human), UniProt Q12866). Briefly: Mer autophosphorylation ELISA in transient transfected 293A cells (Example H). It counts as cell-based. Particulars: cellular activity; Mer autophosphorylation ELISA in transient transfected 293A cells. The procedure, abridged:
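293A cells transiently transfected with human MERTK were treated 1 h in serum-free medium with an 8-point compound dilution (0.3% DMSO final). Lysates were assayed by phospho-Mer sandwich ELISA against a phospho-Mer standard; IC50 came from a 4-parameter logistic fit, normalised to DMSO (100%) and reference-inhibitor (0%) controls.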

For test [4], the target named is Human MER (residues 528-999) (Homo sapiens (Human), UniProt Q12866). Briefly: Human Mer kinase assay, HTRF KinEase (Example C-2). The test is classed as biochemical. The note with it: protocol of Example C-2 (other compounds). In outline:
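Recombinant MER 528-999 (1 ng/well) in buffer with 5 mM MgCl2 and 1 mM DTT was reacted with biotinylated peptide and ATP at Km (40 μM) for 60 min at room temperature. EDTA stop with SA-XL665 and Eu3+ TK antibody, then 665/620 nm HTRF read; IC50 from 4-parameter fit.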

Human KDR (residues 790-1356), sequence (P35968 790-1356): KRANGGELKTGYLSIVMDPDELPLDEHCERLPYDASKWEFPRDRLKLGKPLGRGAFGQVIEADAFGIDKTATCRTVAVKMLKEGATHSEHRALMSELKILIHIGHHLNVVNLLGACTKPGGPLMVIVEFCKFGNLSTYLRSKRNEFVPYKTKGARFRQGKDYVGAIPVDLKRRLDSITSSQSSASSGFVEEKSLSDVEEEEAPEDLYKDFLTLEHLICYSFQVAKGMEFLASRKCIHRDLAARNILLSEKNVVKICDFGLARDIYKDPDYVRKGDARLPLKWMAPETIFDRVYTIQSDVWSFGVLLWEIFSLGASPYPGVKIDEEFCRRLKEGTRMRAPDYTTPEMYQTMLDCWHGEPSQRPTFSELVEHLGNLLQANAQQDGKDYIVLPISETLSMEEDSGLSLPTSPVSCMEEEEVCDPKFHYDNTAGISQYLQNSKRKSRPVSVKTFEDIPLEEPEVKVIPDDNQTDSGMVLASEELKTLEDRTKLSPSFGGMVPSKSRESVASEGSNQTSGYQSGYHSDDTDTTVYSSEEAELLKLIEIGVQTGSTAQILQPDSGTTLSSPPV
Human MER (residues 528-999), sequence (Q12866 528-999): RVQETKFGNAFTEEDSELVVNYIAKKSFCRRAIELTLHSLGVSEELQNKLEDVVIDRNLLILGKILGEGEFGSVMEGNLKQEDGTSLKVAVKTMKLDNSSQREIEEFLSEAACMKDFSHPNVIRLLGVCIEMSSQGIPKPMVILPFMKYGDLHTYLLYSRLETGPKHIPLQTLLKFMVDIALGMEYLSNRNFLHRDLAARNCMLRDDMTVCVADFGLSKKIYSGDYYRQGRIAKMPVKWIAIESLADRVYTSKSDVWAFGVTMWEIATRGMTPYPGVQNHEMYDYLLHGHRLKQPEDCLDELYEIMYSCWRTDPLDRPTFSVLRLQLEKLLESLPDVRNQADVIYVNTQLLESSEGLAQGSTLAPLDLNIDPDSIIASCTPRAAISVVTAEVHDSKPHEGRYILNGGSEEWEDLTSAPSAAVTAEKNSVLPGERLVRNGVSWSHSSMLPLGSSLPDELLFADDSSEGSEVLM
Mer (phospho-Mer, MERTK-transfected 293A cells), sequence (Q12866 21-999): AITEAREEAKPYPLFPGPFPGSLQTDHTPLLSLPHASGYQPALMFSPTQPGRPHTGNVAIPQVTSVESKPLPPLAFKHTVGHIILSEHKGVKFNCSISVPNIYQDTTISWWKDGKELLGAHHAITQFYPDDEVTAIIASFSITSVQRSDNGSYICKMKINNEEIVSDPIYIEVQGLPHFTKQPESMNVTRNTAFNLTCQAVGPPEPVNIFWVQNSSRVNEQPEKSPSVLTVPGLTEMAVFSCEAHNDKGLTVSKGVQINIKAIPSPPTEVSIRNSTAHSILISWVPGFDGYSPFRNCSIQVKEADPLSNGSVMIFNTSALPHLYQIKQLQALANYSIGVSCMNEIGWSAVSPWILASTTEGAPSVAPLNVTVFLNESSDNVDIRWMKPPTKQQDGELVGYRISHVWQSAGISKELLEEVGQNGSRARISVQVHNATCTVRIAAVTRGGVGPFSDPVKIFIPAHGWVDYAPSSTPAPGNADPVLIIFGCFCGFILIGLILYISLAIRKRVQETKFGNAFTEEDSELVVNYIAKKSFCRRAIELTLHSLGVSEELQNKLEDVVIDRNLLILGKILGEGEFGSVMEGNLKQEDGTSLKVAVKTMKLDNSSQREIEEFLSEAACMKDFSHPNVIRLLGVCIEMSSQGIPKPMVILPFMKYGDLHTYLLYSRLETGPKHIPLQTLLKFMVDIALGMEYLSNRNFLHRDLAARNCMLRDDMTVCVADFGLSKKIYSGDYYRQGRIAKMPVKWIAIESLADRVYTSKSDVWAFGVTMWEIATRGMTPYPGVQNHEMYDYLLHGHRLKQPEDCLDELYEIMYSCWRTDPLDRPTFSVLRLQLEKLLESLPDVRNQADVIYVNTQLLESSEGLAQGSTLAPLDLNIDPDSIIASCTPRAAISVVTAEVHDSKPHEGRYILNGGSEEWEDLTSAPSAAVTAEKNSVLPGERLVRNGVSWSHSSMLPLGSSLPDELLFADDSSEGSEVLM

Regarding `COc1cc2nccc(Oc3ccc(NC(=O)c4cnc(C)c(-c5ccc(F)cc5)c4O)cc3F)c2nc1OC` [Compound 28, N-[4-[(6,7-Dimethoxy-1,5-naphthyridin-4-yl)oxy]-3-fluorophenyl]-5-(4-fluorophenyl)-4-hydroxy-6-methylpyridine-3-carboxamide], the IC50 in test [1], in test [2], in test [3] and in test [4] was under 0.1 µM each time.

`COc1cc2nccc(Oc3ccc(NC(=O)c4cn(C(C)C)c(C)c(-c5ccccc5)c4=O)cc3F)c2nc1OC` [Compound 29, N-[4-[(6,7-Dimethoxy-1,5-naphthyridin-4-yl)oxy]-3-fluorophenyl]-6-methyl-4-oxo-5-phenyl-1-propan-2-ylpyridine-3-carboxamide hydrochloride]: the half-inhibitory concentration (IC50) in test [1], in test [2], in test [3] and in test [4] was under 0.1 µM in each case.

On to `COc1cc2nccc(Oc3ccc(NC(=O)c4cnc(C)c(-c5ccc(F)cc5)c4O)cc3)c2nc1OC` [Compound 119, N-[4-[(6,7-Dimethoxy-1,5-naphthyridin-4-yl)oxy]phenyl]-5-(4-fluorophenyl)-4-hydroxy-6-methylpyridine-3-carboxamide], for which the IC50 in test [1], in test [2], in test [3] and in test [4] was under 0.1 µM in each case.

Take `COc1cnc2c(Oc3ccc(NC(=O)c4cncc(-c5ccc(F)cc5)c4O)cc3F)ccnc2c1` [Compound 120, N-[3-Fluoro-4-[(7-methoxy-1,5-naphthyridin-4-yl)oxy]phenyl]-5-(4-fluorophenyl)-4-hydroxypyridine-3-carboxamide]: the IC50 in test [1], in test [2], in test [3] and in test [4] was under 0.1 µM throughout.

For the compound `COc1cnc2c(Oc3ccc(NC(=O)c4cn(C(C)C)c(C)c(-c5ccc(F)cc5)c4=O)cc3F)ccnc2c1` [Compound 121, N-[3-Fluoro-4-[(7-methoxy-1,5-naphthyridin-4-yl)oxy]phenyl]-5-(4-fluorophenyl)-6-methyl-4-oxo-1-propan-2-ylpyridine-3-carboxamide], the IC50 (usually the concentration that gives 50% inhibition) in test [1] is over 0.3 µM; in test [2], under 0.1 µM; in test [3], under 0.1 µM; in test [4], under 0.1 µM.

For the compound `COc1cc2nccc(Oc3ccc(NC(=O)c4cn(C(C)C)cc(-c5ccc(F)cc5)c4=O)cc3)c2nc1OC` [Compound 122, N-[4-[(6,7-Dimethoxy-1,5-naphthyridin-4-yl)oxy]phenyl]-5-(4-fluorophenyl)-4-oxo-1-propan-2-ylpyridine-3-carboxamide], the IC50 in test [1], in test [2], in test [3] and in test [4] was under 0.1 µM in each case.

In the case of `COc1cnc2c(Oc3ccc(NC(=O)c4cn(C(C)C)cc(-c5ccc(F)cc5)c4=O)cc3F)ccnc2c1` [Compound 123, N-[3-Fluoro-4-[(7-methoxy-1,5-naphthyridin-4-yl)oxy]phenyl]-5-(4-fluorophenyl)-4-oxo-1-propan-2-ylpyridine-3-carboxamide], the IC50 in test [1] was over 0.3 µM; in test [2], under 0.1 µM; in test [3], under 0.1 µM; in test [4], under 0.1 µM.

On to `COc1cc2nccc(Oc3ccc(NC(=O)c4cn(-c5cccnc5)cc(-c5ccc(F)cc5)c4=O)cc3F)c2nc1OC` [Compound 125, N-[4-[(6,7-Dimethoxy-1,5-naphthyridin-4-yl)oxy]-3-fluorophenyl]-5-(4-fluorophenyl)-4-oxo-1-pyridin-3-ylpyridine-3-carboxamide], for which the concentration for half-maximal inhibition (IC50) in test [1] was over 0.3 µM; in test [2] it was under 0.1 µM; in test [3], under 0.1 µM; in test [4] it was under 0.1 µM.

Regarding `COc1cc2nccc(Oc3ccc(NC(=O)c4cn(OC)cc(-c5ccc(F)cc5)c4=O)cc3F)c2nc1OC` [Compound 126, N-[4-[(6,7-Dimethoxy-1,5-naphthyridin-4-yl)oxy]-3-fluorophenyl]-5-(4-fluorophenyl)-1-methoxy-4-oxopyridine-3-carboxamide], the 50% inhibitory concentration (IC50) in test [1], in test [2], in test [3] and in test [4] was under 0.1 µM each time.

`COc1cc2nccc(Oc3ccc(NC(=O)c4cn(OC)cc(-c5ccc(F)cc5)c4=O)cc3)c2nc1OC` [Compound 127, N-[4-[(6,7-Dimethoxy-1,5-naphthyridin-4-yl)oxy]phenyl]-5-(4-fluorophenyl)-1-methoxy-4-oxopyridine-3-carboxamide]: the IC50 in test [1], in test [2], in test [3] and in test [4] was under 0.1 µM each time.

As to `COc1cnc2c(Oc3ccc(NC(=O)c4cn(OC)cc(-c5ccc(F)cc5)c4=O)cc3F)ccnc2c1` [Compound 128, N-[3-Fluoro-4-[(7-methoxy-1,5-naphthyridin-4-yl)oxy]phenyl]-5-(4-fluorophenyl)-1-methoxy-4-oxopyridine-3-carboxamide], the IC50 in test [1] is 0.1 to 0.3 µM; in test [2], under 0.1 µM; in test [3] it was under 0.1 µM; in test [4], under 0.1 µM.

Regarding `COc1nc2c(Oc3ccc(NC(=O)c4cncc(-c5ccc(F)cc5)c4O)cc3F)ccnc2cc1Br` [Compound 129, N-[4-[(7-Bromo-6-methoxy-1,5-naphthyridin-4-yl)oxy]-3-fluorophenyl]-5-(4-fluorophenyl)-4-hydroxypyridine-3-carboxamide], the 50% inhibitory concentration (IC50) in test [1], in test [2], in test [3] and in test [4] was under 0.1 µM each time.

In the case of `COc1nc2c(Oc3ccc(NC(=O)c4cnc(C)c(-c5ccc(F)cc5)c4O)cc3F)ccnc2cc1Br` [Compound 130, N-[4-[(7-Bromo-6-methoxy-1,5-naphthyridin-4-yl)oxy]-3-fluorophenyl]-5-(4-fluorophenyl)-4-hydroxy-6-methylpyridine-3-carboxamide], the 50% inhibitory concentration (IC50) in test [1], in test [2], in test [3] and in test [4] was under 0.1 µM in each case.

As for `COc1nc2c(Oc3ccc(NC(=O)c4cn(C(C)C)cc(-c5ccc(F)cc5)c4=O)cc3F)ccnc2cc1Br` [Compound 131, N-[4-[(7-Bromo-6-methoxy-1,5-naphthyridin-4-yl)oxy]-3-fluorophenyl]-5-(4-fluorophenyl)-4-oxo-1-propan-2-ylpyridine-3-carboxamide], the IC50 is over 0.3 µM in test [1], under 0.1 µM in test [2], under 0.1 µM in test [3] and under 0.1 µM in test [4].

On to `COc1nc2c(Oc3ccc(NC(=O)c4cn(C(C)C)c(C)c(-c5ccc(F)cc5)c4=O)cc3F)ccnc2cc1Br` [Compound 132, N-[4-[(7-Bromo-6-methoxy-1,5-naphthyridin-4-yl)oxy]-3-fluorophenyl]-5-(4-fluorophenyl)-6-methyl-4-oxo-1-propan-2-ylpyridine-3-carboxamide], for which the IC50 is 0.1 to 0.3 µM in test [1], under 0.1 µM in test [2], under 0.1 µM in test [3] and under 0.1 µM in test [4].

As for `COC(=O)c1cnc2c(Oc3ccc(NC(=O)c4cnc(C)c(-c5ccc(F)cc5)c4O)cc3F)ccnc2c1` [Compound 138, Methyl 8-[2-fluoro-4-[[5-(4-fluorophenyl)-4-hydroxy-6-methylpyridine-3-carbonyl]amino]phenoxy]-1,5-naphthyridine-3-carboxylate], the IC50 is over 0.3 µM in test [1], under 0.1 µM in test [2], 0.1 to 0.3 µM in test [3] and 0.1 to 0.3 µM in test [4].

Consider `COc1cc2nccc(Oc3ccc(NC(=O)c4cn(C(C)(C)C)c(C)c(-c5ccc(F)cc5)c4=O)cc3F)c2nc1OC` [Compound 139, 1-tert-Butyl-N-[4-[(6,7-dimethoxy-1,5-naphthyridin-4-yl)oxy]-3-fluorophenyl]-5-(4-fluorophenyl)-6-methyl-4-oxopyridine-3-carboxamide], for which the IC50 in test [1] was over 0.3 µM; in test [2] it was under 0.1 µM; in test [3] it was under 0.1 µM; in test [4], under 0.1 µM.

On to `COc1cc2nccc(Oc3ccc(NC(=O)c4cn(-c5cnn(C)c5)c(C)c(-c5ccc(F)cc5)c4=O)cc3F)c2nc1OC` [Compound 140, N-[4-[(6,7-Dimethoxy-1,5-naphthyridin-4-yl)oxy]-3-fluorophenyl]-5-(4-fluorophenyl)-6-methyl-1-(1-methylpyrazol-4-yl)-4-oxopyridine-3-carboxamide], for which the half-maximal inhibitory concentration (IC50) in test [1] is over 0.3 µM; in test [2] it was under 0.1 µM; in test [3], under 0.1 µM; in test [4], under 0.1 µM.

These data come from US12371428B2 (Exelixis, Inc., priority 2019, dated 2025).
